Reference: PubChem BioAssay AID1919013 (Molecular Pharmacology Branch, DTP, NCI, 2023)

Tested on: LG0703-F498-PDC complex spheroid growth
Assay: Anticancer human tumor LG0703-F498-PDC patient-derived lung adenocarcinoma cell line growth inhibition [AhR]
Conditions: for IC50: curve of first compound; for viability, T/C: stronger effect = lower value
Summary of the method: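 Complex tumor spheroids co-cultured with HUVEC and human MSC stroma; AhR antagonists tested in combination with standard-of-care and investigational agents. Top concentration at or near clinical Cmax (else 10 microM), half-log dilutions; growth expressed as percent test/control.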

[1] = second compound 0.1 µM, first compound 0.0316 µM
[2] = second compound 0.1 µM, first compound 0.1 µM
[3] = second compound 0.1 µM, first compound 0.316 µM
[4] = second compound 0.1 µM, first compound 1 µM
[5] = second compound 0.1 µM, first compound 3.16 µM
[6] = second compound 0.1 µM, first compound 10 µM
[7] = second compound 0.316 µM, first compound 0.0316 µM
[8] = second compound 0.316 µM, first compound 0.1 µM
[9] = second compound 0.316 µM, first compound 0.316 µM
[10] = second compound 0.316 µM, first compound 1 µM
[11] = second compound 0.316 µM, first compound 3.16 µM
[12] = second compound 0.316 µM, first compound 10 µM
[13] = second compound 1 µM, first compound 0.0316 µM
[14] = second compound 1 µM, first compound 0.1 µM
[15] = second compound 1 µM, first compound 0.316 µM
[16] = second compound 1 µM, first compound 1 µM
[17] = second compound 1 µM, first compound 3.16 µM
[18] = second compound 1 µM, first compound 10 µM
[19] = second compound 3.16 µM, first compound 0.0316 µM
[20] = second compound 3.16 µM, first compound 0.1 µM
[21] = second compound 3.16 µM, first compound 0.316 µM
[22] = second compound 3.16 µM, first compound 1 µM
[23] = second compound 3.16 µM, first compound 3.16 µM
[24] = second compound 3.16 µM, first compound 10 µM
[25] = second compound 10 µM, first compound 0.0316 µM
[26] = second compound 10 µM, first compound 0.1 µM
[27] = second compound 10 µM, first compound 0.316 µM
[28] = second compound 10 µM, first compound 1 µM
[29] = second compound 10 µM, first compound 3.16 µM
[30] = second compound 10 µM, first compound 10 µM
[31] = second compound 0.1 µM, first compound 0.00949 µM
[32] = second compound 0.1 µM, first compound 0.03 µM
[33] = second compound 0.1 µM, first compound 0.0949 µM
[34] = second compound 0.1 µM, first compound 0.3 µM
[35] = second compound 0.316 µM, first compound 0.00949 µM
[36] = second compound 0.316 µM, first compound 0.03 µM
[37] = second compound 0.316 µM, first compound 0.0949 µM
[38] = second compound 0.316 µM, first compound 0.3 µM
[39] = second compound 1 µM, first compound 0.00949 µM
[40] = second compound 1 µM, first compound 0.03 µM
[41] = second compound 1 µM, first compound 0.0949 µM
[42] = second compound 1 µM, first compound 0.3 µM
[43] = second compound 3.16 µM, first compound 0.00949 µM
[44] = second compound 3.16 µM, first compound 0.03 µM
[45] = second compound 3.16 µM, first compound 0.0949 µM
[46] = second compound 3.16 µM, first compound 0.3 µM
[47] = second compound 10 µM, first compound 0.00949 µM
[48] = second compound 10 µM, first compound 0.03 µM
[49] = second compound 10 µM, first compound 0.0949 µM
[50] = second compound 10 µM, first compound 0.3 µM
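Note: luminescence taken as a proxy for viable cell amount.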
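Throughout, for viability, T/C: percent of DMSO vehicle control where 100% means growth equal to vehicle.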

CC1(C)CCC(CN2CCN(c3ccc(C(=O)NS(=O)(=O)c4ccc(NCC5CCOCC5)c([N+](=O)[O-])c4)c(Oc4cnc5[nH]ccc5c4)c3)CC2)=C(c2ccc(Cl)cc2)C1 + Cc1cncc(-c2nc(NCCc3c[nH]c4ccccc34)c3ncn(C(C)C)c3n2)c1
IC50 (second compound 0.1 µM): 8.32 µM | IC50 (second compound 0.316 µM): 7.1 µM | IC50 (second compound 1 µM): 7.97 µM | IC50 (second compound 3.16 µM): 0.0316 µM | IC50 (second compound 10 µM): < 0.0316 µM | viability, T/C [1]: 112% | viability, T/C [2]: 96.1% | viability, T/C [3]: 106% | viability, T/C [4]: 97% | viability, T/C [5]: 87.8% | viability, T/C [6]: 42.5% | viability, T/C [7]: 120% | viability, T/C [8]: 88% | viability, T/C [9]: 101% | viability, T/C [10]: 92.7% | viability, T/C [11]: 88.4% | viability, T/C [12]: 34.3% | viability, T/C [13]: 116% | viability, T/C [14]: 113% | viability, T/C [15]: 95% | viability, T/C [16]: 103% | viability, T/C [17]: 97.7% | viability, T/C [18]: 37.8% | viability, T/C [19]: 48% | viability, T/C [20]: 49.5% | viability, T/C [21]: 54.6% | viability, T/C [22]: 43.3% | viability, T/C [23]: 52.1% | viability, T/C [24]: 24.7% | viability, T/C [25]: 1.31% | viability, T/C [26]: 1.08% | viability, T/C [27]: 1.56% | viability, T/C [28]: 1.25% | viability, T/C [29]: 1.72% | viability, T/C [30]: 4.35%

CC1COCCN1c1cc(C2(S(C)(=N)=O)CC2)nc(-c2ccnc3[nH]ccc23)n1 (stereo not given) + Cc1cncc(-c2nc(NCCc3c[nH]c4ccccc34)c3ncn(C(C)C)c3n2)c1
IC50 (second compound 0.1 µM): > 10 µM | IC50 (second compound 0.316 µM): > 10 µM | IC50 (second compound 1 µM): 9.33 µM | IC50 (second compound 3.16 µM): < 0.0316 µM | IC50 (second compound 10 µM): < 0.0316 µM | viability, T/C [1]: 107% | viability, T/C [2]: 104% | viability, T/C [3]: 92.5% | viability, T/C [4]: 96.4% | viability, T/C [5]: 97.2% | viability, T/C [6]: 59.2% | viability, T/C [7]: 92.4% | viability, T/C [8]: 110% | viability, T/C [9]: 105% | viability, T/C [10]: 110% | viability, T/C [11]: 89.7% | viability, T/C [12]: 54.5% | viability, T/C [13]: 107% | viability, T/C [14]: 91.2% | viability, T/C [15]: 101% | viability, T/C [16]: 94.8% | viability, T/C [17]: 89.9% | viability, T/C [18]: 46.9% | viability, T/C [19]: 18% | viability, T/C [20]: 18.5% | viability, T/C [21]: 25% | viability, T/C [22]: 17.1% | viability, T/C [23]: 13.5% | viability, T/C [24]: 8.17% | viability, T/C [25]: 1.76% | viability, T/C [26]: 1.78% | viability, T/C [27]: 1.04% | viability, T/C [28]: 1.58% | viability, T/C [29]: 0.93% | viability, T/C [30]: 1.14%

CCN(c1cc(-c2ccc(CN3CCOCC3)cc2)cc(C(=O)NCc2c(C)cc(C)[nH]c2=O)c1C)C1CCOCC1 + Cc1cncc(-c2nc(NCCc3c[nH]c4ccccc34)c3ncn(C(C)C)c3n2)c1
IC50 (second compound 0.1 µM): > 3 µM | IC50 (second compound 0.316 µM): > 3 µM | IC50 (second compound 1 µM): > 3 µM | IC50 (second compound 3.16 µM): < 0.00949 µM | IC50 (second compound 10 µM): < 0.00949 µM | viability, T/C [31]: 106% | viability, T/C [32]: 110% | viability, T/C [33]: 106% | viability, T/C [34]: 102% | viability, T/C (second compound 0.1 µM, first compound 0.949 µM): 121% | viability, T/C (second compound 0.1 µM, first compound 3 µM): 123% | viability, T/C [35]: 118% | viability, T/C [36]: 104% | viability, T/C [37]: 120% | viability, T/C [38]: 104% | viability, T/C (second compound 0.316 µM, first compound 0.949 µM): 106% | viability, T/C (second compound 0.316 µM, first compound 3 µM): 125% | viability, T/C [39]: 119% | viability, T/C [40]: 110% | viability, T/C [41]: 112% | viability, T/C [42]: 111% | viability, T/C (second compound 1 µM, first compound 0.949 µM): 109% | viability, T/C (second compound 1 µM, first compound 3 µM): 120% | viability, T/C [43]: 30.5% | viability, T/C [44]: 26.3% | viability, T/C [45]: 29.8% | viability, T/C [46]: 30.8% | viability, T/C (second compound 3.16 µM, first compound 0.949 µM): 27.9% | viability, T/C (second compound 3.16 µM, first compound 3 µM): 35.5% | viability, T/C [47]: 1.09% | viability, T/C [48]: 1.47% | viability, T/C [49]: 1.79% | viability, T/C [50]: 1.93% | viability, T/C (second compound 10 µM, first compound 0.949 µM): 0.83% | viability, T/C (second compound 10 µM, first compound 3 µM): 1.74%

Nc1ncn(C2CC(O)C(CO)S2)c(=O)n1 (stereo not given) + Cc1cncc(-c2nc(NCCc3c[nH]c4ccccc34)c3ncn(C(C)C)c3n2)c1
IC50 (second compound 0.1 µM): > 0.3 µM | IC50 (second compound 0.316 µM): > 0.3 µM | IC50 (second compound 1 µM): > 0.3 µM | IC50 (second compound 3.16 µM): < 0.000949 µM | IC50 (second compound 10 µM): < 0.000949 µM | viability, T/C (second compound 0.1 µM, first compound 0.000949 µM): 107% | viability, T/C (second compound 0.1 µM, first compound 0.003 µM): 109% | viability, T/C [31]: 91.9% | viability, T/C [32]: 98.4% | viability, T/C [33]: 104% | viability, T/C [34]: 105% | viability, T/C (second compound 0.316 µM, first compound 0.000949 µM): 117% | viability, T/C (second compound 0.316 µM, first compound 0.003 µM): 107% | viability, T/C [35]: 108% | viability, T/C [36]: 115% | viability, T/C [37]: 109% | viability, T/C [38]: 99.1% | viability, T/C (second compound 1 µM, first compound 0.000949 µM): 87.3% | viability, T/C (second compound 1 µM, first compound 0.003 µM): 89.1% | viability, T/C [39]: 78.2% | viability, T/C [40]: 86.3% | viability, T/C [41]: 94.4% | viability, T/C [42]: 103% | viability, T/C (second compound 3.16 µM, first compound 0.000949 µM): 3.25% | viability, T/C (second compound 3.16 µM, first compound 0.003 µM): 3.89% | viability, T/C [43]: 4.63% | viability, T/C [44]: 5.24% | viability, T/C [45]: 2.89% | viability, T/C [46]: 4.14% | viability, T/C (second compound 10 µM, first compound 0.000949 µM): 1.24% | viability, T/C (second compound 10 µM, first compound 0.003 µM): 0.8% | viability, T/C [47]: 1.81% | viability, T/C [48]: 1.01% | viability, T/C [49]: 1.6% | viability, T/C [50]: 1.59%
